Consider 4 molecules from US20260125371A1, “METHOD FOR INHIBITING CLOSTRIDIOIDES DIFFICILE SPORE GERMINATION” (UNIVERSITY OF NOTRE DAME DU LAC, priority 2022, published 2026).

Assay [1] has as its system S. aureus. As to conditions: cited from earlier work.
Assay [2] relates to S. epidermidis ATCC 35547. As to conditions: cited from earlier work.
The subject of assay [3] is S. pyogenes ATCC 49399. To be noted: cited from earlier work.
In assay [4] the test system is E. faecalis. To be noted: cited from earlier work.
Assay [5] relates to E. faecium. As to conditions: cited from earlier work.
Assay [6] deals with A. baumanii ATCC17961. As to conditions: cited from earlier work.
Assay [7] concerns E. aerogenes ATCC35029. As to conditions: cited from earlier work.
For assay [8], the system named is S. oralis ATCC 9811. Kind of assay: MIC against S. oralis. The assay is classed as cell-based. As to conditions: Streptococcus oralis, ATCC9811.
The test system of assay [9] is B. cereus ATCC 13061. Kind of assay: MIC against B. cereus. It is filed as cell-based. As to conditions: Bacillus cereus, ATCC13061.
For assay [10], the system named is MRSA. To be noted: cited from earlier work.

Each structure is given as a SMILES string. Converted amounts (≈) assume the structure as drawn. Where two headings read alike, the source gives them in different places.

With `Oc1ccc(-c2nc(-c3ccc(OC4CCCC4)cc3)no2)cc1` [Compound 2], the MIC (as a rule, the lowest concentration that inhibits growth of the organism) was 2 to 4 µg/mL in assay [1] (S. aureus ATCC 27660); 2 µg/mL (≈ 6.2 µM) in assay [1] (S. aureus ATCC 29213); 1 µg/mL (≈ 3.1 µM) in [1] (S. aureus NRS100 (COL)); 1 to 2 µg/mL in assay [1] (S. aureus NRS119); 2 µg/mL (≈ 6.2 µM) in [1] (S. aureus NRS120); 2 µg/mL (≈ 6.2 µM) in assay [1] (S. aureus VRS1). Also, the MIC in [1] (S. aureus VRS2) was 2 µg/mL (≈ 6.2 µM); in assay [2] it was 2 µg/mL (≈ 6.2 µM); in assay [3] it was over 128 µg/mL; in [4] (E. faecalis 99 (Van R)), 4 µg/mL (≈ 12.4 µM); in [4] (E. faecalis 201 (Van S)), 4 µg/mL (≈ 12.4 µM); in assay [4] (E. faecalis ATCC 29212), 4 µg/mL (≈ 12.4 µM). Also, the MIC was 2 µg/mL (≈ 6.2 µM) in [5] (E. faecium 106 (Van R)); 2 µg/mL (≈ 6.2 µM) in assay [5] (E. faecium 119-39A (Van S)); 4 µg/mL (≈ 12.4 µM) in assay [5] (E. faecium NCTC 7171); over 128 µg/mL in assay [6]; over 128 µg/mL in assay [7].

In assay [8], `CCc1c(Cl)c(O)c(Cl)c(O)c1C(=O)O[C@H]1[C@H](O)[C@H](OC)[C@H](OC/C2=C\C=C\C[C@H](O)/C(C)=C/[C@H](CC)[C@@H](O[C@@H]3OC(C)(C)[C@@H](OC(=O)C(C)C)[C@H](O)[C@@H]3O)/C(C)=C/C(C)=C/C[C@@H]([C@@H](C)O)OC2=O)O[C@@H]1C` [FDX, fidaxomicin] came in with an MIC of 32 µg/mL (≈ 30.2 µM).

As for `Cc1ncc([N+](=O)[O-])n1CCO` [MTZ, metronidazole], the minimum inhibitory concentration (MIC) in [9] is over 256 µg/mL.

In the case of `FC(F)(F)c1ccc(Oc2ccc(-c3noc(-c4ccc5[nH]ccc5c4)n3)cc2)cc1` [Compound 1], the “MIC against MRSA” value in [1] (MRSA) was 2 µg/mL (≈ 4.75 µM). In addition, the MIC in assay [1] (S. aureus ATCC 27660) was 4 µg/mL (≈ 9.49 µM); in assay [1] (S. aureus ATCC 29213), 4 µg/mL (≈ 9.49 µM); in assay [1] (S. aureus NRS100 (COL)), 2 µg/mL (≈ 4.75 µM); in assay [1] (S. aureus NRS119) it was 2 µg/mL (≈ 4.75 µM); in assay [1] (S. aureus NRS120) it was 2 µg/mL (≈ 4.75 µM); in assay [1] (S. aureus VRS1), 2 µg/mL (≈ 4.75 µM). Further, the MIC in assay [1] (S. aureus VRS2) was 2 µg/mL (≈ 4.75 µM); in [2] it was 2 µg/mL (≈ 4.75 µM); in assay [3], 64 µg/mL (≈ 152 µM); in assay [4] (E. faecalis 99 (Van R)), 4 µg/mL (≈ 9.49 µM); in assay [4] (E. faecalis 201 (Van S)), 4 µg/mL (≈ 9.49 µM); in [4] (E. faecalis ATCC 29212) it was 8 µg/mL (≈ 19 µM). For the same molecule, the MIC in [5] (E. faecium 106 (Van R)) is 2 µg/mL (≈ 4.75 µM); in assay [5] (E. faecium 119-39A (Van S)), 1 µg/mL (≈ 2.37 µM); in assay [5] (E. faecium NCTC 7171), 2 µg/mL (≈ 4.75 µM); in [6], over 128 µg/mL; in assay [7] it was over 128 µg/mL. Moreover, the “efficacy in mouse models of MRSA infection” value in assay [10] was “efficacious”.
